Data set [1] has as its target T1, MAO-A (Homo sapiens, UniProt P21397).
T1 sequence (P21397 1-527): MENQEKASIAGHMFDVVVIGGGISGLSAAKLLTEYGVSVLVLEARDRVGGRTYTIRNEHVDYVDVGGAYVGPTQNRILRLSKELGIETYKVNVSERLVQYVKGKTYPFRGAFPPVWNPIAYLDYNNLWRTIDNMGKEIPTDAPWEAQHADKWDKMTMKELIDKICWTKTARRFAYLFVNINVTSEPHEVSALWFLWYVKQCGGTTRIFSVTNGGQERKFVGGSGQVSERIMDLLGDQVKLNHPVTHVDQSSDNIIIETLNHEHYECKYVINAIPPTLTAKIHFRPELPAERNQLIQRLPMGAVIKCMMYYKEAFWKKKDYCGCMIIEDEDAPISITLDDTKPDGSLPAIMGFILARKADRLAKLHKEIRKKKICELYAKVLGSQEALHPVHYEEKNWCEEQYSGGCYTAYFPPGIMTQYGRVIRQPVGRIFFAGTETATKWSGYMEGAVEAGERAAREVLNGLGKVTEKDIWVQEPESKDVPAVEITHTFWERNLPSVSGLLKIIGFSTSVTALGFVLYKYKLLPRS
Also on record: method as in PMID 23374869. Particulars: MAO-A inhibition; cited from earlier work.

The target of data set [2] is T1, MAO-A. Kind of data set: Isothermal titration calorimetry (ITC) of the interaction of MAO-A with the compounds. It is filed as binding. The method, then: (§1) Protein-ligand interaction analysis was performed using isothermal titration calorimetry (ITC). During the analysis, the heat of uptake or release, due to the interaction of MAO-A with the tested compounds, was recorded. In this way, raw data were obtained in the form of exothermic heat versus time graphs. Additionally, the ligand was injected into 1% DMSO with methanol to subtract the energetic effects of the dilution of the ligand solution. The highest negative change in enthalpy was characterized by the interaction of the enzyme with compounds 3 (−19.19 kJ/mol) and 4 (−13.37 kJ/mol), and the lowest value of ΔH was recorded during interactions with compound 1 (−4.51 kJ/mol). […] Affinity (ΔG) values were more evenly distributed between compound 1, compounds 1 with 4, 2 with 4, and 2 with 3. […] The ability of the ligands to inhibit […] activity was described on the basis of the IC50 parameter.
(§2) A MicroCal PEAQ-ITC200 calorimeter (Malvern, Worcestershire, UK) was used to study the interactions of MAO-A with the compounds. The enzyme and compounds were prepared in 1% DMSO with methanol. The measurements were performed at 36.6 °C. The stirring speed was set to 307 rpm, and a total of 19 injections were performed within 50 min, with the reference power set to 10.00 μcal/s. All sample solutions were thoroughly degassed before use. The calorimetric cell was filled with a 20 μM (350 µL) MAO-A sample, and the syringe (2 µL of injection volume) was loaded with a 1 mM/L solution or/and 5-HT (1 mM/L). The ITC data were processed using MicroCal PEAQ-ITC analysis software with calorimetric routines. The following parameters were determined: the standard interaction Gibbs energy (ΔG), standard interaction enthalpy (ΔH), entropy (ΔS), equilibrium constant (KD), and stoichiometry of reaction (N).
In general terms: ITC needs no label: the signal is the heat of the interaction.

Data set [3] has as its target T1, MAO-A. Kind of data set: Inhibition of 5-HT deamination by the MAO-A enzyme (ITC). It is filed as biochemical. Particulars: for IC50: rate of 5-HT deamination. As for the experimental part: as §1
Compounds 4 and 4 combined with 2 were at a similar level of about 5 μmol/μmol of the enzyme. Substrate 1, tested with lactones 2 and 3, turned out to be the least beneficial compounds, with a high concentration inhibiting the activity of the enzyme by 50%, and had the least favorable affinity. This effect can be explained by the binding of several compounds in the mixture to different MAO-A residues at the active site and in other regions. Molecular docking can be used in future research to confirm this assumption.
as §2

Another data set relates to primary rat hepatocytes. Particulars: concentration 0–500 µM; cited from earlier work.
Data set [4] has as its system primary human hepatocytes. The settings on record: concentration 0–500 µM; cited from earlier work.
In data set [5] the test system is primary rat hepatocytes and primary human hepatocytes. The settings on record: repetitive administration; cited from earlier work.
Details of data set [6]: method as in PMID 23169608. Particulars: in vivo; cited from earlier work.
Details of data set [7]: method as in PMID 34060121. Particulars: rat plasma and liver microsomes; cited from earlier work. (In general: Microsomes from liver hold many membrane-bound enzymes, among them those of drug oxidation.)
[8] abbreviates: ITC, 36.6 °C, mean ± SD, n = 3, read-out: KD.
[9] abbreviates: KM 5-HT 0.35 mmol, mean ± SD, n = 3, read-out: Ki.

This is an account of results in paper PMC10342118, “Microbial Metabolites of 3-n-butylphthalide as Monoamine Oxidase A Inhibitors” (International Journal of Molecular Sciences, 2023).

Where “and” joins values, the source holds several entries; their conditions need not be identical. Equal entries are not always repeated. Where two headings read alike, the source gives them in different places. Marks after values point to notes of the source that are not given here.

The term Ki denotes a measure of affinity in units of concentration, obtained from inhibition or displacement. As usually defined, the Kd is the free concentration of one partner at which half of the binding sites on the other are occupied at equilibrium, for simple one-to-one binding.

In the case of `O=C1OCc2ccc(OCCCc3ccccc3)cc21` [6-phenyl-propoxyphthalide], the Ki on MAO-A [1] was 0.062 µM.
In the case of `CCCCC1OC(=O)c2ccccc21` (centres unmarked) [Compound 1, 3-n-butylphthalide], the dissociation constant (Kd) on MAO-A [2] was found to be 24.3 ± 1.39 µM. Further, at MAO-A [2] (ITC, 36.6 °C, mean ± SD, n = 3), the “KA ∗ 10^3” value is 41.15 ± 0.36 ^d 10^3 L/mol; the “∆G (affinity)” value was -6.532 ± 0.272 kcal/mol; the “∆H” value is −4.51 kJ/mol and −4.51 ± 0.02 ^e kJ/mol; the “∆S” value is on record as 73.85 ± 1.05 ^d J/mol ∗ K. Also, the affinity at MAO-A [3], expressed as Ki, was 241 ± 3.55 µM. For the same compound, the toxicity entry in the data set on primary rat hepatocytes is “not toxic”. Also, the toxicity result in data set [4] is “not toxic”. Also, in data set [5], the cell viability entry was “reduction in cell viability”.
For the compound `O=C1OC(CCCCO)c2ccccc21` (centres unmarked) [Compound 3, 3-n-butyl-11-hydroxyphthalide], on MAO-A [2] (ITC, 36.6 °C, mean ± SD, n = 3), the “KA ∗ 10^3” value is on record as 4.18 ± 0.35 ^e 10^3 L/mol; the “∆G (affinity)” value is −23.49 kJ/mol and −23.49 ± 1.42 ^i kJ/mol; the “∆H” value is −19.19 kJ/mol and −19.19 ± 0.01 ^f kJ/mol; the “∆S” value was 13.92 ± 0.92 ^a J/mol ∗ K. The Kd on MAO-A [2] (setting [8]) stood at 239 ± 4.25 µM. Further, the Ki at MAO-A [3] (setting [9]) is below 0.001 µM. The IC50 against MAO-A [3] was 1.29 μmol/μmol of enzyme.
Regarding `CC(O)CCC1OC(=O)c2ccccc21` (centres unmarked) [Compound 2, 3-n-butyl-10-hydroxyphthalide], at MAO-A [2] (ITC, 36.6 °C, mean ± SD, n = 3), the “KA ∗ 10^3” value is recorded as 33.44 ± 0.15 ^a 10^3 L/mol, the “∆G (affinity)” value was −26.79 ± 1.55 ^j kJ/mol, the “∆H” value was −7.77 ± 0.01 ^e kJ/mol and the “∆S” value is given as 61.55 ± 1.84 ^d J/mol ∗ K. Moreover, at MAO-A [2] (setting [8]), the Kd stood at 29.9 ± 1.09 µM. In addition, the inhibition constant (Ki) at MAO-A [3] (setting [9]) amounted to 994 ± 3.18 µM. In data set [6], the “rank among circulating human metabolites of 3-n-butylphthalide” value was “dominant circulating human metabolite”. Further, the “rank among metabolites of 3-n-butylphthalide” value in data set [7] was “main metabolite”.
Consider `O=C(O)CCCC1OC(=O)c2ccccc21` (centres unmarked) [Compound 4, 3-n-butylphthalide-11-oic acid], for which, at MAO-A [2] (ITC, 36.6 °C, mean ± SD, n = 3), the “KA ∗ 10^3” value was 14.83 ± 0.25 ^e 10^3 L/mol; the “∆G (affinity)” value was −28.42 kJ/mol and −28.42 ± 1.43 ^j kJ/mol; the “∆H” value is −13.37 kJ/mol and −13.37 ± 0.02 ^f kJ/mol; the “∆S” value is 48.71 ± 1.05 ^a J/mol ∗ K. Besides, the Kd at MAO-A [2] (setting [8]) amounted to 67.4 ± 3.15 µM. In addition, the Ki at MAO-A [3] (setting [9]) was 128 ± 1.25 µM. For the same compound, on MAO-A [3], the IC50 result is “about 5 μmol/μmol of enzyme”.
